{"source": "paper PMC10120463", "about": "(Journal of Enzyme Inhibition and Medicinal Chemistry, 2023)", "assay": "Haemolysis assay", "format": "cell-based", "conditions": "rabbit, rabbit red blood cell suspension", "data": [{"smiles": "C[C@@H]1[C@H](O)[C@@H](C)/C=C/C=C/C=C/C=C/C=C/C=C/C=C/[C@H](O[C@@H]2O[C@H](C)[C@@H](O)[C@H](N)[C@@H]2O)C[C@@H]2O[C@](O)(C[C@@H](O)C[C@@H](O)[C@H](O)CC[C@@H](O)C[C@@H](O)CC(=O)O[C@H]1C)C[C@H](O)[C@H]2C(=O)O", "note": "[AmB, amphotericin B]", "values": [{"measurement": "hemolysis at 1 h, 32 µg/mL", "value": 53.5, "unit": "%"}]}]}
